In general, IC50 refers to the concentration needed to halve the response being measured.

This is an account of results in patent US20240109897A1, “MODULATORS OF FPR1 AND METHODS OF USING THE SAME” (BEIJING TIANTAN HOSPITAL, priority 2021, published 2024).

In one assay the target is T1, FPR1 (UniProt P21462).
T1 sequence (P21462 1-350): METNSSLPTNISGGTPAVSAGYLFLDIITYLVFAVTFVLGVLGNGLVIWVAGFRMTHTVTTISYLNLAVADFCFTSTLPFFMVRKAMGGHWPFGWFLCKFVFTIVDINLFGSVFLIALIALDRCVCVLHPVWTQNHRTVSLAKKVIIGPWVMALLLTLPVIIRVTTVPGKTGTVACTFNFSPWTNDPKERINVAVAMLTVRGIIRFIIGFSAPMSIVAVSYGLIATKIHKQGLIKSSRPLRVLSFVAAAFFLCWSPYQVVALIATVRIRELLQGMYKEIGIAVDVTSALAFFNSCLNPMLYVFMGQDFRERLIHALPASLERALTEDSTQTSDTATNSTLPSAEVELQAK
Description: fMLP-FPR1 mediated calcium signaling assay in FPR1-overexpressing 293T cells. Format: cell-based, human or mouse. The conditions noted are these: inhibition of fMLP-FPR1 mediated intracellular calcium change; hFPR1 or mFPR1 overexpressing 293T cells; 10 min preincubation; INDO-1 AM, FACS. Here is the method: The effects of the compounds of this disclosure on regulating the FPR1-mediated cell signaling were measured by monitoring the cellular calcium level change, as illustrated by the exemplary examples in Table 2. The dose response of the illustrated examples are reported categorically using the following ranking criteria: *** (IC50≤100 nM); ** (IC50≥100 to ≤1000 nM); * (IC50≥1000 to ≤10,000 nM); N.D.—not detected.
The coding DNA sequence (CDS) of human FPR1 (NM_001193306) and mouse FPR1 (NM_013521) were cloned and inserted to the lentivirus vector GV367 (Vector information:http://www.genechem.com.cn/index/supports/tool_search.html?keywords=GV367) under the conduction of pCMV promoter. 293T cells were cultured in H-DMEM supplemented with 10% FBS and 1% penicillin-streptomycin (PS) at 37° C. in 5% CO2 Incubator. 293T cells were transfected with lentivirus vector GV367 containing the CDS of human or mouse FPR1 for 24 h and then cultured with complete medium for another 48 h. At 72 h after transfected, cells were passaged, and 5 μg/ml puromycin was added to screen FPR1-transfected 293T cells. The overexpression of human or mouse FPR1 in 293 T cells were detected by immunostaining with anti-mouse or human FPR1 antibodies (Biolegend or Antibody Online).
Cultured hFPR1 or mFPR1 overexpressing 293T cells were labeled with 1 μM INDO-1 AM calcium sensor dye (eBioscience) for 30 min at 37° C. After washed with 1×PBS, cells were resuspended with H-DMEM containing 3% FBS, and were maintained on ice prior to the measurement of intracellular calcium concentration. To measure the inhibitory potency of designed potential FPR1 antagonists, hFPR1 or mFPR1 overexpressing 293T cells were incubated with the compound for 10 min at room temperature. The cytoplasmic calcium levels were then measured by FACS Aria III at 37° C. prior to and after the stimulation of fMLP. We defined the immunofluorescence intensity of indo-1 AM before adding fMLP as the basal value, and the intensity at the peak immunofluorescence reduction after adding fMLP as minimum value for each sample. The change of intracellular calcium was calculated as follow: (basal value−minimum value)/basal value×100%. The IC50 of each compound in inhibiting fMLP-FPR1 mediated intracellular calcium concentration in 293T cells were automatically calculated with Prism 8.0.2 software (GraphPad) after inputting a series of change of intracellular calcium at multiple concentration gradients (from 0 nM to 100 μM).
Background: Calcium flux is commonly read through the fluorescence of an indicator in the cells.

The next assay concerns ICH mice. Description: MRI lesion, hematoma and perihematomal edema volume in intracerebral hemorrhage (ICH) mouse model. The conditions noted are these: 5 mg/kg/daily i.p., first dose 1 h after ICH onset, vs vehicle. The assay is classed as in vivo. From the text:
The intracerebral hemorrhage (ICH) model in mice was used to illustrate the protective benefits of the compounds of this disclosure, and FIG. 1 depicts the procedure in preparing this model. ICH was induced in C57 B/L6 male mice by the injection of an autologous blood or collagenase as previously described (Lauer et al., Circulation 124: 1654-1662 (2011); Rynkowski et al., Nat. Protoc. 3:122-128 (2008)). Mice were anesthetized using isoflurane inhalation and fixed on a stereotactic frame. A burr hole was drilled on the right side of the skull at 2.3 mm lateral to the midline and 0.5 mm anterior to the bregma. For the autologous blood model, 30 μl of non-heparinized blood was withdrawn from the angular vein. The first 5 μl blood was injected at a depth of 3 mm beneath the hole, and the rest 25 μl blood were injected at 3.7 mm beneath the hole with a rate of 1 μl/min. In the collagenase model, 0.038 U of the bacterial collagenase (in 0.5 μl saline) was infused to the striatum (0.5 mm anterior, 2.3 mm right lateral, and 3.5 mm deep relative to bregma) at a speed of 0.5 μl/min. Mice on the sham control were injected with an equal volume of saline. Throughout the procedure, the body temperature was maintained at 37° C. with a homeothermic blanket. After the surgery, mice were under observation with free access to food and water. […]
The total lesion volume was measured on the 7T small-animal MM scanner (Bruker, Corp., USA) as described (Li et al., 2017). The T2-weighted water imaging was recorded with following parameters (repetition time (TR)=4500 ms, echo time (TE)=65.5 ms, field of view (FOV)=28×28 mm^2, image matrix=256×256, at 0.5-mm slice thickness). […] The volumes were manually outlined and calculated by multiplying the sum of the volume by the distance between sections (0.5 mm) using MIPAV software. PHE volumes were calculated as total lesion volume minus hematoma volume. MRI data were analyzed by two investigators blinded to experimental groups.

For `Cc1ccc(O)c(-c2[nH]nc3c2C(c2ccc(C(F)(F)F)cc2)N(C2CCOCC2)C3=O)c1` (racemic) [Compound 1, Rac-3-(2-hydroxy-5-methylphenyl)-5-(tetrahydro-2H-pyran-4-yl)-4-(4-(trifluoromethyl)phenyl)-4,5-dihydropyrrolo[3,4-c]pyrazol-6(2H)-one], the 50% inhibitory concentration (IC50) at FPR1 was 100 to 1000 nM. Further, the “perihematomal edema (PHE) size” value with ICH mice is recorded as “significantly reduced”.
